Key:
DXP reductoisomerase = DXP reductoisomerase (Escherichia coli, UniProt P45568); conditions: Kuzuyama et al., 1998; cited from earlier work
[1] = especially in combination with other herbicides; Kamuro et al.; cited from earlier work
E. coli TOP10 F′ = test: Growth of E. coli control cells on medium containing fosmidomycin; format: cell-based; conditions: TOP10 F′ transformed with parent vectors; LB or LB/IPTG with fosmidomycin 20 μg/ml
Protocol: Single colonies of TOP10 F′/pHKO2 (designated strain HK6), TOP10 F′/pHKO3 (designated strain HK7), and TOP10 F′/pHKO9 (designated strain HK8), are used to individually inoculate 4 ml LB/amp cultures and grown overnight at 30° C., 225 rpm. The HK6 and HK7 cultures are serially diluted 10,000 to 100,000-fold and plated on LB containing fosmidomycin (20 μg/ml).

[2] = test system: Nicotiana tabacum var. ‘Xanthi NC’ leaf sections; test: Toxicity of fosmidomycin to tobacco grown on medium; conditions: after three weeks of growth on medium

Sequence of DXP reductoisomerase (P45568 whole entry): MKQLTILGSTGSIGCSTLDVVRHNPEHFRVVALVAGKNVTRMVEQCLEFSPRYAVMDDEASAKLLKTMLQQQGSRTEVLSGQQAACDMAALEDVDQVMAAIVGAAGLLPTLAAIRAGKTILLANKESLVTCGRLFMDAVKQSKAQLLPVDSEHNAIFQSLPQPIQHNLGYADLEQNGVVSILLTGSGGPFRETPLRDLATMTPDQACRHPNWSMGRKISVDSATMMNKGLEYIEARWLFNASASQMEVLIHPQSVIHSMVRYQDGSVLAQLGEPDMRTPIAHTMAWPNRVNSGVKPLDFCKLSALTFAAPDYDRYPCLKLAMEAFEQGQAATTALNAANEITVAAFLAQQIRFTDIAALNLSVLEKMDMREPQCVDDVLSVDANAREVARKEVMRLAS

In the case of O=CN(O)CCCP(=O)(O)O [fosmidomycin], the “inhibition of the enzyme DXP reductoisomerase” value (DXP reductoisomerase) is given as “specific inhibitor”, the herbicidal activity [1] is given as “significant herbicidal activity” and the “growth of E. coli control cells on medium containing fosmidomycin” value (E. coli TOP10 F′) is given as “unable to grow”. For the same molecule, the “fosmidomycin concentration at which toxicity is evident in tobacco” value [2] was “at least 500 micromolar”.
